Results reported in ChEMBL document CHEMBL6182905, “Fluorinated sulfonamide-flavonoid derivatives as novel Keap1-Nrf2 inhibitors: Potent induction of cytoprotective gene HO-1 in vivo” (Eur J Med Chem, 2025).

System: AML12
Assay: Activation of Nrf2 in LPS-stimulated mouse AML12 cells assessed as fold increase in HO-1 gene expression at 10 uM incubated for 16 hrs
Assay type: cell-based
Conditions: filed as activator

Structure (SMILES) | fold change (FC)
COc1ccc(-c2cc(=O)c3ccc(NS(=O)(=O)c4cccnc4)cc3o2)cc1 | 5.3
COc1ccc(-c2cc(=O)c3ccc(NS(=O)(=O)c4ccc(OC)cc4OC)cc3o2)cc1 | 4
COc1ccc(-c2cc(=O)c3ccc(NS(=O)(=O)c4ccc(F)c(Cl)c4)cc3o2)cc1 | 4
COc1ccc(-c2cc(=O)c3ccc(NS(=O)(=O)c4c(C)c(C)cc(C)c4C)cc3o2)cc1 | 2.8
COc1ccc(-c2cc(=O)c3ccc(NS(=O)(=O)c4cccc(OC(F)(F)F)c4)cc3o2)cc1 | 4.2
CCc1ccc(S(=O)(=O)Nc2ccc3c(=O)cc(-c4ccc(OC)cc4)oc3c2)cc1 | 5
COc1ccc(-c2cc(=O)c3ccc(NS(=O)(=O)c4ccc([N+](=O)[O-])cc4)cc3o2)cc1 | 3.3
COc1ccc(-c2cc(=O)c3ccc(NS(=O)(=O)c4ccc(F)cc4Cl)cc3o2)cc1 | 3.6
C[S+]([O-])CCCCN=C=S (configuration not stated) | 5.8
COc1ccc(-c2cc(=O)c3ccc(N(CC(N)=O)S(=O)(=O)c4ccc(OC)cc4)cc3o2)cc1 | 2.3
COc1ccc(-c2cc(=O)c3ccc(NS(=O)(=O)c4ccc(OC(F)(F)F)cc4)cc3o2)cc1 | 7
CCCCOc1ccc(S(=O)(=O)Nc2ccc3c(=O)cc(-c4ccc(OC)cc4)oc3c2)cc1 | 2.3
COc1ccc(-c2cc(=O)c3ccc(NS(=O)(=O)c4cccc(OC)c4)cc3o2)cc1 | 3.7
COc1ccc(-c2cc(=O)c3ccc(NS(=O)(=O)c4ccc(C)cc4C)cc3o2)cc1 | 3
COc1ccc(-c2cc(=O)c3ccc(NS(=O)(=O)c4cccs4)cc3o2)cc1 | 3.4
O=C1c2c(O)cc(O)cc2O[C@H](c2cc(O)c(O)c(O)c2)[C@H]1O | 1.4

Structure (SMILES) | fold change (FC)
COC(=O)CN(c1ccc2c(=O)cc(-c3ccc(OC)cc3)oc2c1)S(=O)(=O)c1ccc(C(F)(F)F)cc1 | 2.6
COc1ccc(-c2cc(=O)c3ccc(NS(=O)(=O)c4ccc(C(F)(F)F)cc4)cc3o2)cc1 | 4.8
COc1ccc(-c2cc(=O)c3ccc(NS(=O)(=O)c4ccc(C)cc4)cc3o2)cc1 | 3.1
COc1ccc(-c2cc(=O)c3ccc(NS(=O)(=O)c4cccc(F)c4)cc3o2)cc1 | 4.5
COc1ccc(-c2cc(=O)c3ccc(NS(=O)(=O)c4ccccc4OC)cc3o2)cc1 | 3.3
COC(=O)CN(c1ccc2c(=O)cc(-c3ccc(OC)cc3)oc2c1)S(=O)(=O)c1ccc(OC)cc1 | 3.5
COC(=O)CN(c1ccc2c(=O)cc(-c3ccc(OC)cc3)oc2c1)S(=O)(=O)c1ccc(F)cc1 | 4.8
COc1ccc(-c2cc(=O)c3ccc(NS(=O)(=O)c4ccc(OC)cc4)cc3o2)cc1 | 4.6
COc1ccc(-c2cc(=O)c3ccc(NS(=O)(=O)c4ccc(C(C)C)cc4)cc3o2)cc1 | 3.4
COc1ccc(-c2cc(=O)c3ccc(NS(=O)(=O)c4ccccc4OC(F)(F)F)cc3o2)cc1 | 3.9
O=c1c(O)c(-c2ccc(O)c(O)c2)oc2cc(O)cc(O)c12 | 1.4
O=c1cc(-c2ccc(O)cc2)oc2cc(O)cc(O)c12 | 1.8
O=C1C[C@@H](c2ccc(O)cc2)Oc2cc(O)ccc21 | 2
COc1ccc(-c2cc(=O)c3ccc(NS(=O)(=O)c4ccc(F)cc4Br)cc3o2)cc1 | 3.2
COc1ccc(-c2cc(=O)c3ccc(NS(=O)(=O)c4ccc(F)c(Br)c4)cc3o2)cc1 | 4.2
COc1ccc(-c2cc(=O)c3ccc(NS(=O)(=O)c4ccccc4F)cc3o2)cc1 | 3.4
